Measured values published in PMC6271870, “Study on the Synthesis, Biological Activity and Spectroscopy of Naphthalimide-Diamine Conjugates” (Molecules, 2014).

Experiments:
human leukemia K562 = test: MTT assay, K562 cells; format: cell-based; conditions: 48 h, aminoguanidine present, mean ± SD of three determinations, max 50 µM tested
Method: The cytotoxicities of the novel conjugates were assessed in vitro by the MTT assay in the presence of aminoguanidine (an inhibitor of amine oxidase) against three cell lines, human leukemia K562, cancer of colon HCT116 and human normal hepatocyte QSG-7701 [34]. […] Thus, compound 7f was selected for further investigation. Cell lines, K562, 7721 and HCT116 were obtained from American Type Culture Collection (ATCC, Shanghai, China). Cells were cultured in RPMI1640, supplemented with 10% heat-inactivated fetal calf serum (FCS), antibiotics (penicillin, 100 units/mL; streptomycin sulfate, 100 μg/mL) at 37 °C, in an atmosphere of 95% air and 5% CO2 under humidified conditions. Aminoguanidine (1 mM) was added as an inhibitor of amine oxidase derived from FCS and had no effect on the various parameters of the cell measured in this study. Chemosensitivity was assessed using the 3-(4,5-dimethylthiazol-2-yl)-2,5-diphenyltetrazolium bromide (MTT) assay. […] After incubation for 4 h at 37 °C, the purple formazan crystals (i.e., a reduced form of MTT) generated from viable cells were dissolved by adding 100 μL 10% sodium dodecyl sulphate (SDS) in each well. The absorbance of each well was then read at 570 nm.

cancer of colon HCT116 = test: MTT assay, HCT116 cells; format: cell-based; conditions: Homo sapiens, HCT-116, aminoguanidine present, mean ± SD of three determinations, max 50 µM tested
Method: (§1) The cytotoxicities of the novel conjugates were assessed in vitro by the MTT assay in the presence of aminoguanidine (an inhibitor of amine oxidase) against three cell lines, human leukemia K562, cancer of colon HCT116 and human normal hepatocyte QSG-7701 [34]. […] Thus, compound 7f was selected for further investigation. Cell lines, K562, 7721 and HCT116 were obtained from American Type Culture Collection (ATCC, Shanghai, China). Cells were cultured in RPMI1640, supplemented with 10% heat-inactivated fetal calf serum (FCS), antibiotics (penicillin, 100 units/mL; streptomycin sulfate, 100 μg/mL) at 37 °C, in an atmosphere of 95% air and 5% CO2 under humidified conditions. Aminoguanidine (1 mM) was added as an inhibitor of amine oxidase derived from FCS and had no effect on the various parameters of the cell measured in this study. In addition, exponentially growing HCT116 or 7721 cells were seeded into 96-well plates at 5000 cells/well and allowed to attach overnight, and then 100 μL of MTT (1 mg/mL) was added. After incubation for 4 h at 37 °C, the MTT solution was removed and the remaining formazan crystals were dissolved with 150 μL DMSO in each well. The absorbance of each well was then read at 570 nm.

[1] = system: human normal hepatocyte QSG-7701; test: MTT assay, QSG-7701 cells; format: cell-based; conditions: QSG7701, aminoguanidine present, mean ± SD of three determinations, max 50 µM tested
Method: as §1

| Compound | IC50 (human leukemia K562) | IC50 (cancer of colon HCT116) | IC50 [1] | melting point |
| --- | --- | --- | --- | --- |
| CN(C)CCN1C(=O)c2cccc3cc(N)cc(c23)C1=O [Amonafide, amonafide, reference compound] | 10.1 ± 2.59 µM | 6.86 ± 1.89 µM | 20.3 ± 2.43 µM | – |
| Cl.Cl.NCCNCCCN1C(=O)c2cccc3cccc(c23)C1=O [Compound 7a, 2-[3-(2-Aminoethylamino)propyl]1H-benz-[de]isoquinoline-1,3(2H)-dione dihydrochloride] | 48.8 ± 3.93 µM | 19.3 ± 4.39 µM | > 50 µM | 233.4 to 235.1 °C |
| Cl.Cl.NCCNCCCCN1C(=O)c2cccc3cccc(c23)C1=O [Compound 7b, 2-[4-(2-Aminoethylamino)butyl]1H-benz-[de]isoquinoline-1,3(2H)-dione dihydrochloride] | 25.6 ± 3.74 µM | 13.9 ± 2.68 µM | 33.9 ± 4.32 µM | 243.1 to 244.1 °C |
| Cl.Cl.NCCNCCCCCN1C(=O)c2cccc3cccc(c23)C1=O [Compound 7c, 2-[5-(2-Aminoethylamino)pentyl]1H-benz-[de]isoquinoline-1,3(2H)-dione dihydrochloride] | 38.8 ± 1.76 µM | 9.89 ± 1.11 µM | > 50 µM | 233.8 to 235.1 °C |
| Cl.Cl.NCCCNCCCN1C(=O)c2cccc3cccc(c23)C1=O [Compound 7d, 2-[3-(3-Aminopropylamino)propyl]1H-benz-[de]isoquinoline-1,3(2H)-dione dihydrochloride] | 19.7 ± 7.23 µM | 8.95 ± 3.87 µM | 8.04 ± 3.35 µM | 233.1 to 234.2 °C |
| Cl.Cl.NCCCNCCCCCN1C(=O)c2cccc3cccc(c23)C1=O [Compound 7e, 2-[5-(3-Aminopropylamino)pentyl]1H-benz-[de]isoquinoline-1,3(2H)-dione dihydrochloride] | 22.4 ± 1.21 µM | 9.52 ± 3.31 µM | 22.2 ± 0.67 µM | 238.6 to 239.8 °C |
| Cl.Cl.NCCCCNCCCCN1C(=O)c2cccc3cccc(c23)C1=O [Compound 7g, 2-[4-(4-Aminobutylamino)butyl]1H-benz-[de]isoquinoline-1,3(2H)-dione dihydrochloride] | 14 ± 3.32 µM | 13.9 ± 2.54 µM | 12 ± 4.07 µM | 226.7 to 228.3 °C |
| Cl.Cl.NCCCCNCCCCCN1C(=O)c2cccc3cccc(c23)C1=O [Compound 7h, 2-[5-(4-Aminobutylamino)pentyl]1H-benz-[de]isoquinoline-1,3(2H)-dione dihydrochloride] | 15.9 ± 1.53 µM | 16.2 ± 4.28 µM | 18.8 ± 4.94 µM | 236.6 to 237.9 °C |
| Cl.Cl.NCCCCCCNCCCN1C(=O)c2cccc3cccc(c23)C1=O [Compound 7i, 2-[3-(6-Aminohexylamino)propyl]1H-benz-[de]isoquinoline-1,3(2H)-dione dihydrochloride] | 41.4 ± 1.76 µM | 11 ± 1.71 µM | > 50 µM | 230.6 to 231.8 °C |
| Cl.Cl.NCCCCCCNCCCCN1C(=O)c2cccc3cccc(c23)C1=O [Compound 7j, 2-[4-(6-Aminohexylamino)butyl]1H-benz-[de]isoquinoline-1,3(2H)-dione dihydrochloride] | 12.6 ± 0.81 µM | 16.4 ± 1.75 µM | 13.1 ± 3.94 µM | 235.9 to 237.2 °C |
| Cl.Cl.NCCCCCCNCCCCCN1C(=O)c2cccc3cccc(c23)C1=O [Compound 7k, 2-[5-(6-Aminohexylamino)pentyl]1H-benz-[de]isoquinoline-1,3(2H)-dione dihydrochloride] | 15.9 ± 1.83 µM | 9.95 ± 1.81 µM | 14.7 ± 3.91 µM | 229.1 to 230.3 °C |
